Test results: PMC10905675, “INX-315, a Selective CDK2 Inhibitor, Induces Cell Cycle Arrest and Senescence in Solid Tumors” (Cancer Discovery, 2023)

Key:
Format in all cases: biochemical
CAMK4 (CaMKIV) = target: T1, CAMK4 (CaMKIV) (Homo sapiens, UniProt Q16566); assay: SelectScreen ZLYTE; conditions: INX-0315 at 100nM
T1 construct: purchased Thermo Fisher Scientific SelectScreen (plus Nanosyn / Reaction Biology for CDK/cyclin lines)
Summary of the method: (§1)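 Preset conditions throughout. Primary: 100 nmol/L INX-315, 1% DMSO. Secondary: ten doses, top 1 µmol/L, bottom 0.0495 nmol/L.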

RPS6KA1 (RSK1) = target: T2, RPS6KA1 (RSK1) (Homo sapiens, UniProt Q15418); assay: SelectScreen ZLYTE; conditions: INX-0315 at 100nM
T2 construct: purchased Thermo Fisher Scientific SelectScreen (plus Nanosyn / Reaction Biology for CDK/cyclin lines)
Summary of the method: as §1

ABL1 Y253F = target: T3, ABL1 Y253F (Homo sapiens, UniProt P00519, Y253F); assay: SelectScreen ZLYTE; conditions: INX-0315 at 100nM
T3 construct: purchased Thermo Fisher Scientific SelectScreen (plus Nanosyn / Reaction Biology for CDK/cyclin lines)
Summary of the method: as §1

RPS6KA5 (MSK1) = target: T4, RPS6KA5 (MSK1) (Homo sapiens, UniProt O75582); assay: SelectScreen ZLYTE; conditions: INX-0315 at 100nM
T4 construct: purchased Thermo Fisher Scientific SelectScreen (plus Nanosyn / Reaction Biology for CDK/cyclin lines)
Summary of the method: as §1

RPS6KB2 (p70S6Kb) = target: T5, RPS6KB2 (p70S6Kb) (Homo sapiens, UniProt Q9UBS0); assay: SelectScreen ZLYTE; conditions: INX-0315 at 100nM
T5 construct: purchased Thermo Fisher Scientific SelectScreen (plus Nanosyn / Reaction Biology for CDK/cyclin lines)
Summary of the method: as §1

ITK = target: T6, ITK (Homo sapiens, UniProt Q08881); assay: SelectScreen ZLYTE; conditions: INX-0315 at 100nM
T6 construct: purchased Thermo Fisher Scientific SelectScreen (plus Nanosyn / Reaction Biology for CDK/cyclin lines)
Summary of the method: as §1

KIT T670I = target: T7, KIT T670I (Homo sapiens, UniProt P10721, T670I); assay: SelectScreen ZLYTE; conditions: INX-0315 at 100nM
T7 construct: purchased Thermo Fisher Scientific SelectScreen (plus Nanosyn / Reaction Biology for CDK/cyclin lines)
Summary of the method: as §1

NTRK1 (TRKA) = target: T8, NTRK1 (TRKA) (Homo sapiens, UniProt P04629); assay: SelectScreen ZLYTE; conditions: INX-0315 at 100nM
T8 construct: purchased Thermo Fisher Scientific SelectScreen (plus Nanosyn / Reaction Biology for CDK/cyclin lines)
Summary of the method: as §1

FLT4 (VEGFR3) = target: T9, FLT4 (VEGFR3) (Homo sapiens, UniProt P35916); assay: SelectScreen ZLYTE; conditions: INX-0315 at 100nM
T9 construct: purchased Thermo Fisher Scientific SelectScreen (plus Nanosyn / Reaction Biology for CDK/cyclin lines)
Summary of the method: as §1

CDC42 BPG (MRCKG) = target: T10, CDC42 BPG (MRCKG) (Homo sapiens, UniProt Q6DT37); assay: SelectScreen ZLYTE; conditions: INX-0315 at 100nM
T10 construct: purchased Thermo Fisher Scientific SelectScreen (plus Nanosyn / Reaction Biology for CDK/cyclin lines)
Summary of the method: as §1

PRKCZ (PKC zeta) = target: T11, PRKCZ (PKC zeta) (Homo sapiens, UniProt Q05513); assay: SelectScreen ZLYTE; conditions: INX-0315 at 100nM
T11 construct: purchased Thermo Fisher Scientific SelectScreen (plus Nanosyn / Reaction Biology for CDK/cyclin lines)
Summary of the method: as §1

[1] = target: T12, CSNK1E (CK1 epsilon) R178C (Homo sapiens, UniProt P49674, R178C); assay: SelectScreen ZLYTE; conditions: INX-0315 at 100nM
T12 construct: purchased Thermo Fisher Scientific SelectScreen (plus Nanosyn / Reaction Biology for CDK/cyclin lines)
Summary of the method: as §1

FES (FPS) = target: T13, FES (FPS) (Homo sapiens, UniProt P07332); assay: SelectScreen ZLYTE; conditions: INX-0315 at 100nM
T13 construct: purchased Thermo Fisher Scientific SelectScreen (plus Nanosyn / Reaction Biology for CDK/cyclin lines)
Summary of the method: as §1

AKT2 (PKB beta) = target: T14, AKT2 (PKB beta) (Homo sapiens, UniProt P31751); assay: SelectScreen ZLYTE; conditions: INX-0315 at 100nM
T14 construct: purchased Thermo Fisher Scientific SelectScreen (plus Nanosyn / Reaction Biology for CDK/cyclin lines)
Summary of the method: as §1

ZAP70 = target: T15, ZAP70 (Homo sapiens, UniProt P43403); assay: SelectScreen ZLYTE; conditions: INX-0315 at 100nM
T15 construct: purchased Thermo Fisher Scientific SelectScreen (plus Nanosyn / Reaction Biology for CDK/cyclin lines)
Summary of the method: as §1

STK23 (MSSK1) = target: T16, STK23 (MSSK1) (Homo sapiens, UniProt Q9UPE1); assay: SelectScreen ZLYTE; conditions: INX-0315 at 100nM
T16 construct: purchased Thermo Fisher Scientific SelectScreen (plus Nanosyn / Reaction Biology for CDK/cyclin lines)
Summary of the method: as §1

CAMK1D (CaMKI delta) = target: T17, CAMK1D (CaMKI delta) (Homo sapiens, UniProt Q8IU85); assay: SelectScreen ZLYTE; conditions: INX-0315 at 100nM
T17 construct: purchased Thermo Fisher Scientific SelectScreen (plus Nanosyn / Reaction Biology for CDK/cyclin lines)
Summary of the method: as §1

FGFR2 = target: T18, FGFR2 (Homo sapiens, UniProt P21802); assay: SelectScreen ZLYTE; conditions: INX-0315 at 100nM
T18 construct: purchased Thermo Fisher Scientific SelectScreen (plus Nanosyn / Reaction Biology for CDK/cyclin lines)
Summary of the method: as §1

CAMK2B (CaMKII beta) = target: T19, CAMK2B (CaMKII beta) (Homo sapiens, UniProt Q13554); assay: SelectScreen ZLYTE; conditions: INX-0315 at 100nM
T19 construct: purchased Thermo Fisher Scientific SelectScreen (plus Nanosyn / Reaction Biology for CDK/cyclin lines)
Summary of the method: as §1

PRKCD (PKC delta) = target: T20, PRKCD (PKC delta) (Homo sapiens, UniProt Q05655); assay: SelectScreen ZLYTE; conditions: INX-0315 at 100nM
T20 construct: purchased Thermo Fisher Scientific SelectScreen (plus Nanosyn / Reaction Biology for CDK/cyclin lines)
Summary of the method: as §1

BMX = target: T21, BMX (Homo sapiens, UniProt P51813); assay: SelectScreen ZLYTE; conditions: INX-0315 at 100nM
T21 construct: purchased Thermo Fisher Scientific SelectScreen (plus Nanosyn / Reaction Biology for CDK/cyclin lines)
Summary of the method: as §1

SBK1 = target: T22, SBK1 (Homo sapiens, UniProt Q52WX2); assay: SelectScreen ZLYTE; conditions: INX-0315 at 100nM
T22 construct: purchased Thermo Fisher Scientific SelectScreen (plus Nanosyn / Reaction Biology for CDK/cyclin lines)
Summary of the method: as §1

RET V804L = target: T23, RET V804L (Homo sapiens, UniProt P07949, V804L); assay: SelectScreen ZLYTE; conditions: INX-0315 at 100nM
T23 construct: purchased Thermo Fisher Scientific SelectScreen (plus Nanosyn / Reaction Biology for CDK/cyclin lines)
Summary of the method: as §1

PDGFRA T674I = target: T24, PDGFRA T674I (Homo sapiens, UniProt P16234, T674I); assay: SelectScreen ZLYTE; conditions: INX-0315 at 100nM
T24 construct: purchased Thermo Fisher Scientific SelectScreen (plus Nanosyn / Reaction Biology for CDK/cyclin lines)
Summary of the method: as §1

PRKG2 (PKG2) = target: T25, PRKG2 (PKG2) (Homo sapiens, UniProt Q13237); assay: SelectScreen ZLYTE; conditions: INX-0315 at 100nM
T25 construct: purchased Thermo Fisher Scientific SelectScreen (plus Nanosyn / Reaction Biology for CDK/cyclin lines)
Summary of the method: as §1

STK4 (MST1) = target: T26, STK4 (MST1) (Homo sapiens, UniProt Q13043); assay: SelectScreen ZLYTE; conditions: INX-0315 at 100nM
T26 construct: purchased Thermo Fisher Scientific SelectScreen (plus Nanosyn / Reaction Biology for CDK/cyclin lines)
Summary of the method: as §1

MAP3K8 (COT) = target: T27, MAP3K8 (COT) (Homo sapiens, UniProt P41279); assay: SelectScreen ZLYTE; conditions: INX-0315 at 100nM
T27 construct: purchased Thermo Fisher Scientific SelectScreen (plus Nanosyn / Reaction Biology for CDK/cyclin lines)
Summary of the method: as §1

HIPK4 = target: T28, HIPK4 (Homo sapiens, UniProt Q8NE63); assay: SelectScreen ZLYTE; conditions: INX-0315 at 100nM
T28 construct: purchased Thermo Fisher Scientific SelectScreen (plus Nanosyn / Reaction Biology for CDK/cyclin lines)
Summary of the method: as §1

GRK6 = target: T29, GRK6 (Homo sapiens, UniProt P43250); assay: SelectScreen ZLYTE; conditions: INX-0315 at 100nM
T29 construct: purchased Thermo Fisher Scientific SelectScreen (plus Nanosyn / Reaction Biology for CDK/cyclin lines)
Summary of the method: as §1

RPS6KA4 (MSK2) = target: T30, RPS6KA4 (MSK2) (Homo sapiens, UniProt O75676); assay: SelectScreen ZLYTE; conditions: INX-0315 at 100nM
T30 construct: purchased Thermo Fisher Scientific SelectScreen (plus Nanosyn / Reaction Biology for CDK/cyclin lines)
Summary of the method: as §1

LTK (TYK1) = target: T31, LTK (TYK1) (Homo sapiens, UniProt P29376); assay: SelectScreen ZLYTE; conditions: INX-0315 at 100nM
T31 construct: purchased Thermo Fisher Scientific SelectScreen (plus Nanosyn / Reaction Biology for CDK/cyclin lines)
Summary of the method: as §1

ABL1 T315I = target: T32, ABL1 T315I (Homo sapiens, UniProt P00519, T315I); assay: SelectScreen ZLYTE; conditions: INX-0315 at 100nM
T32 construct: purchased Thermo Fisher Scientific SelectScreen (plus Nanosyn / Reaction Biology for CDK/cyclin lines)
Summary of the method: as §1

FGR = target: T33, FGR (Homo sapiens, UniProt P09769); assay: SelectScreen ZLYTE; conditions: INX-0315 at 100nM
T33 construct: purchased Thermo Fisher Scientific SelectScreen (plus Nanosyn / Reaction Biology for CDK/cyclin lines)
Summary of the method: as §1

ALK = target: T34, ALK (Homo sapiens, UniProt Q9UM73); assay: SelectScreen ZLYTE; conditions: INX-0315 at 100nM
T34 construct: purchased Thermo Fisher Scientific SelectScreen (plus Nanosyn / Reaction Biology for CDK/cyclin lines)
Summary of the method: as §1

[2] = system: CDK3/cyclin E1, CDK5 (inactive), CDK5/p25, CDK5/p35, CSF1R, MAPK15/ERK7, NTRK/TRKC, TYK2; assay: SelectScreen primary screen; conditions: 100 nmol/L INX-315
From the text: (§2) INX-315 was first evaluated in the SelectScreen Biochemical Kinase Profiling at Thermo Fisher Scientific (Madison, WI). The primary screen consisted of INX-315 dosed at a single concentration of 100 nmol/L in 1% DMSO across each platform within the SelectScreen array of assays, LanthaScreen Eu Kinase Binding Assay; AdaptaScreen; and Z'LyteScreen using preestablished conditions at Thermo Fisher Scientific as shown in Supplementary Table S2. […] The follow-up screen consisted of 10-point dose–response curves for INX-315 from 1 µmol/L to 0.0495 nmol/L.

CDK2/cyclin A/A1/E1/O = assay: SelectScreen primary screen; conditions: 100 nmol/L INX-315
From the text: as §2

T20 sequence (Q05655 whole entry): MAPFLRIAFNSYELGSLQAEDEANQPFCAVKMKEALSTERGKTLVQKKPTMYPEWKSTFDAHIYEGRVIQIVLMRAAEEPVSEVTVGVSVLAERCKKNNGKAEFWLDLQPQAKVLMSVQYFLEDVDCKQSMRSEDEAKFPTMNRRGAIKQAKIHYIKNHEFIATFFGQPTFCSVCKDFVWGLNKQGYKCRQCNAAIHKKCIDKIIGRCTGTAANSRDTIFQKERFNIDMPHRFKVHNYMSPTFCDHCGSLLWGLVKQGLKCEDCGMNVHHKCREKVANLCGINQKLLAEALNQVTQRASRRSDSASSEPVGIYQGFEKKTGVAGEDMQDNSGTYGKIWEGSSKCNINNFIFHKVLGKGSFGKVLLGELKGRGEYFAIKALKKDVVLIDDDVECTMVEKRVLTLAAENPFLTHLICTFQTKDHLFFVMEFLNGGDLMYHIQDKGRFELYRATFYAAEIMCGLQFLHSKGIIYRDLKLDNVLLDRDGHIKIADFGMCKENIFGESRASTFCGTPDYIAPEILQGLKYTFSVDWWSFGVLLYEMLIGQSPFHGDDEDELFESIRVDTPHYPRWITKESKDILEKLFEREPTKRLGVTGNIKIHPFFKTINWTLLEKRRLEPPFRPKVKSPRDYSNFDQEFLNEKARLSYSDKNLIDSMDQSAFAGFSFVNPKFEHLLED
T19 sequence (Q13554 whole entry): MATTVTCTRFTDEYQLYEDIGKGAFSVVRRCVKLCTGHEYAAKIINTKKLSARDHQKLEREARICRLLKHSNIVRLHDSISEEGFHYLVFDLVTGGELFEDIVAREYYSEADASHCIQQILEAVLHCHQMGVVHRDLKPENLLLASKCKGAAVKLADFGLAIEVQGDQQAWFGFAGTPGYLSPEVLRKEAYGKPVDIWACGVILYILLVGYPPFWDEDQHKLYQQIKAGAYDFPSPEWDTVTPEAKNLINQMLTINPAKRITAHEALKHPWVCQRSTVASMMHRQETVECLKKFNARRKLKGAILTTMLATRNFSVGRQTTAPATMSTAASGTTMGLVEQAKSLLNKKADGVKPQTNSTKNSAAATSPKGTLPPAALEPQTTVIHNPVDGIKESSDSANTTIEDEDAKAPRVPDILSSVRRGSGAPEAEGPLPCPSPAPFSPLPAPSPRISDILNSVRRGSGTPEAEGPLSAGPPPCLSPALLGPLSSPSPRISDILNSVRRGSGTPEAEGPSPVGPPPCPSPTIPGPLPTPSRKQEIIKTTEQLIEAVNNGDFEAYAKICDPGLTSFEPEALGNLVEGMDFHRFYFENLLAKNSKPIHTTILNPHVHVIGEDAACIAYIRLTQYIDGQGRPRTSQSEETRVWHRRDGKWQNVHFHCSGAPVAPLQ
T1 sequence (Q16566 whole entry): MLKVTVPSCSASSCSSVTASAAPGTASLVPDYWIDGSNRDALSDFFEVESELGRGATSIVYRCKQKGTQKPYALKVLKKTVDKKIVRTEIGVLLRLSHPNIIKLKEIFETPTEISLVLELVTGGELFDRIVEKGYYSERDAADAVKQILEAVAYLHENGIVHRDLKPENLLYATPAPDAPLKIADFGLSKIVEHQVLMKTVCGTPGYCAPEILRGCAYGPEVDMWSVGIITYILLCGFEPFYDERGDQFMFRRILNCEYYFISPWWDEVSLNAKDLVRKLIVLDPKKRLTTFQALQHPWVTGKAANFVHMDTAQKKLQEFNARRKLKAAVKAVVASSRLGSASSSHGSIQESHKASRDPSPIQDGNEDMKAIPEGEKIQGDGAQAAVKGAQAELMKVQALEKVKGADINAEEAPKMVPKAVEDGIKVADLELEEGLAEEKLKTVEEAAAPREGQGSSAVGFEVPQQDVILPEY
T23 sequence (P07949 29-1114 V804L): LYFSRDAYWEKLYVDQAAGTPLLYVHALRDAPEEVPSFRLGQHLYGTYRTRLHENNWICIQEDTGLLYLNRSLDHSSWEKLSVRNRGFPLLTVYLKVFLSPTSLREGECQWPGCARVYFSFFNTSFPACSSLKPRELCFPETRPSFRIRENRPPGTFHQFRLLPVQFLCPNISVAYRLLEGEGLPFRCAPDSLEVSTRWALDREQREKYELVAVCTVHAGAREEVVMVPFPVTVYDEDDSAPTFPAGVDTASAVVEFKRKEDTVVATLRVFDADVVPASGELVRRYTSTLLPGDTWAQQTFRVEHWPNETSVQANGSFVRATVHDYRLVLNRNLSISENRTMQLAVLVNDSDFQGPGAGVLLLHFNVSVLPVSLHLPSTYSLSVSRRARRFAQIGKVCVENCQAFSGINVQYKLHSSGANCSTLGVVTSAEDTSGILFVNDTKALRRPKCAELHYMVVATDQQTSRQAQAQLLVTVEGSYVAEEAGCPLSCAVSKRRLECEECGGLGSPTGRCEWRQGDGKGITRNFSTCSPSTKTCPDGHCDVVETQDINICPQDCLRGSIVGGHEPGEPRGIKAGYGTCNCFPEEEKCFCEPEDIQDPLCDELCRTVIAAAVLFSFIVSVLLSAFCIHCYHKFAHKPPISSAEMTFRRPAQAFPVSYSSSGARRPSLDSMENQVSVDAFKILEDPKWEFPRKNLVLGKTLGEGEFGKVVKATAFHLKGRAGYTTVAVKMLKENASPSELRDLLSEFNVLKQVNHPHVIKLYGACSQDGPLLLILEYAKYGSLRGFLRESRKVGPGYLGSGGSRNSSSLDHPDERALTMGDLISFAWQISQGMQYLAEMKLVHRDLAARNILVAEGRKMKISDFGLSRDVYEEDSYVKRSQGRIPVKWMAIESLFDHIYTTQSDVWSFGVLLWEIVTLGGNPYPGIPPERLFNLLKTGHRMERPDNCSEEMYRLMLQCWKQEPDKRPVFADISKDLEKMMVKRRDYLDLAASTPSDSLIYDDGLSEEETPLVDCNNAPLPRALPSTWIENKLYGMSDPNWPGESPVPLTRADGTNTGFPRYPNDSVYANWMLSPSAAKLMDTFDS
T10 sequence (Q6DT37 whole entry): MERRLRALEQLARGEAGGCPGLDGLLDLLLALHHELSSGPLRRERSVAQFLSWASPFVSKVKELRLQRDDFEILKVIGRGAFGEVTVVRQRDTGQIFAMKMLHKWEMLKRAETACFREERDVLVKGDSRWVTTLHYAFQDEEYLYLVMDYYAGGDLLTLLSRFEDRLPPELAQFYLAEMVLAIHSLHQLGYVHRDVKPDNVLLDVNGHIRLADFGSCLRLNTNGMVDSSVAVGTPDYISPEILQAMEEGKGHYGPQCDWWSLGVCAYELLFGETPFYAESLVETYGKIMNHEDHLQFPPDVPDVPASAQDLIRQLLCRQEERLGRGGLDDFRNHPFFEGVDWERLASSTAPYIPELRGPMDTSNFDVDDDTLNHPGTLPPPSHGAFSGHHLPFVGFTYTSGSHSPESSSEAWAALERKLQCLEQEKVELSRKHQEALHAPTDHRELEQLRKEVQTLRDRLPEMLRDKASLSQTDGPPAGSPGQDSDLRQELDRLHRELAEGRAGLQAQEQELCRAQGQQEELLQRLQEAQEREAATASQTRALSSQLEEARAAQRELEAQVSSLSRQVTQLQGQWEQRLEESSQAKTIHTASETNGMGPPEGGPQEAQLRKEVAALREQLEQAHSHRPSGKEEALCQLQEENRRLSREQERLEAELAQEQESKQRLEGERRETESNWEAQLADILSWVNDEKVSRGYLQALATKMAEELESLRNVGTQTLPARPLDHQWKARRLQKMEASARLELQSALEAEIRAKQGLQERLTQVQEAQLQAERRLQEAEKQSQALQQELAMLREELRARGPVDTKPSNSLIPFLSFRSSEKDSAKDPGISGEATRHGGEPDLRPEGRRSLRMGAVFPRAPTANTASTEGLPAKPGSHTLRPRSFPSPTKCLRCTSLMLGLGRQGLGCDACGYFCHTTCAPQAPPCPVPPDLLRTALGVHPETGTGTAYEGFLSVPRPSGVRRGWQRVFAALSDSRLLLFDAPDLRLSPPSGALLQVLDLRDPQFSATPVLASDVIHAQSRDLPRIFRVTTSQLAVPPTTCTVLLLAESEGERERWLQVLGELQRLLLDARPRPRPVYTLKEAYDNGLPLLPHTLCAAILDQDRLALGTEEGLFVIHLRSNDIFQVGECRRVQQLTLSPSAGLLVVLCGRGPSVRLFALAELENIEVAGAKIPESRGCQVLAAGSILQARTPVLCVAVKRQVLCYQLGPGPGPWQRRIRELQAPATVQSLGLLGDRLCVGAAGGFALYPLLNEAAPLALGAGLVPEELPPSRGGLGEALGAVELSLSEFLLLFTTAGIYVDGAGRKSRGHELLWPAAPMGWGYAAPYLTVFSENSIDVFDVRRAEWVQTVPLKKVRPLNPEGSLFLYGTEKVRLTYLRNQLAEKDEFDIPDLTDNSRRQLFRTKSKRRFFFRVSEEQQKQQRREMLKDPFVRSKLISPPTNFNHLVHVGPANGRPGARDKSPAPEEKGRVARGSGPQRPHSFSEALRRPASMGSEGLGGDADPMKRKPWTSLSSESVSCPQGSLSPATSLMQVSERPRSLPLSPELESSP
T22 sequence (Q52WX2 whole entry): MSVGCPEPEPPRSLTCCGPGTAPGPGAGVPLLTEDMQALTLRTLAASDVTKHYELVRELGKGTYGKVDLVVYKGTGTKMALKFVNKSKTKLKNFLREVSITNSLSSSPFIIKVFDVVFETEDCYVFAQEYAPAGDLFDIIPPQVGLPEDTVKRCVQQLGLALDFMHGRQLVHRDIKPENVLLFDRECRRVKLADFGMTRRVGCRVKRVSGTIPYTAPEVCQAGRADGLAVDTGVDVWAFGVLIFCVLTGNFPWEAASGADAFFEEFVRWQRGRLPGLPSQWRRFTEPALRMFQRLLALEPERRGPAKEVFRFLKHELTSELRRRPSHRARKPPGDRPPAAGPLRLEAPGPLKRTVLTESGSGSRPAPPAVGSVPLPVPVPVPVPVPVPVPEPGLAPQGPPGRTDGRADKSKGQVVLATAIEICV

NS(=O)(=O)c1ccc(Nc2ncc3cc4n(c3n2)C2(CCCCC2)C(=O)NN4)cc1 [INX-315]
inhibition at 0.1 µM (CAMK4 (CaMKIV)): 0% | inhibition at 0.1 µM (RPS6KA1 (RSK1)): 47% | inhibition at 0.1 µM (ABL1 Y253F): 8% | inhibition at 0.1 µM (RPS6KA5 (MSK1)): 8% | inhibition at 0.1 µM (RPS6KB2 (p70S6Kb)): 4% | inhibition at 0.1 µM (ITK): 5% | inhibition at 0.1 µM (KIT T670I): 7% | inhibition at 0.1 µM (NTRK1 (TRKA)): 44% | inhibition at 0.1 µM (FLT4 (VEGFR3)): 53% | inhibition at 0.1 µM (CDC42 BPG (MRCKG)): 4% | inhibition at 0.1 µM (PRKCZ (PKC zeta)): 10% | inhibition at 0.1 µM [1]: 5% | inhibition at 0.1 µM (FES (FPS)): 17% | inhibition at 0.1 µM (AKT2 (PKB beta)): 1% | inhibition at 0.1 µM (ZAP70): -1% | inhibition at 0.1 µM (STK23 (MSSK1)): 6% | inhibition at 0.1 µM (CAMK1D (CaMKI delta)): 1% | inhibition at 0.1 µM (FGFR2): 20% | inhibition at 0.1 µM (CAMK2B (CaMKII beta)): 17% | inhibition at 0.1 µM (PRKCD (PKC delta)): -5% | inhibition at 0.1 µM (BMX): 22% | inhibition at 0.1 µM (SBK1): 5% | inhibition at 0.1 µM (RET V804L): 35% | inhibition at 0.1 µM (PDGFRA T674I): -1% | inhibition at 0.1 µM (PRKG2 (PKG2)): -1% | inhibition at 0.1 µM (STK4 (MST1)): 26% | inhibition at 0.1 µM (MAP3K8 (COT)): -1% | inhibition at 0.1 µM (HIPK4): 7% | inhibition at 0.1 µM (GRK6): 30% | inhibition at 0.1 µM (RPS6KA4 (MSK2)): 4% | inhibition at 0.1 µM (LTK (TYK1)): 7% | inhibition at 0.1 µM (ABL1 T315I): 10% | inhibition at 0.1 µM (FGR): 11% | inhibition at 0.1 µM (ALK): 16% | inhibition of CDK3/cyclin E1, CDK5 (inactive), CDK5/p25, CDK5/p35, CSF1R, MAPK15/ERK7, NTRK/TRKC, TYK2 [2]: ≥ 80% | inhibition of CDK2/cyclin A/A1/E1/O (CDK2/cyclin A/A1/E1/O): ≥ 94%
